Source: patent US12637461B2, “Compounds for the activation of AMPK” (PFIZER INC., priority 2022, dated 2026)

Molecular target: T1, human AMPK α2β2γ3 (Homo sapiens, UniProt O43741+P54646+Q9UGI9)
T1 construct: expressed in transfected cells; host or cells: HEK293AD cells, MaxCyte bulk electroporation
Test: Primary cellular assay: γ3 associated phospho-Thr172 AMPK detection (custom pAMPK Surefire AlphaLISA) in α2β2γ3 bulk transiently transfected HEK293 cells
Format: cell-based
Settings: activation of human AMPK α2β2γ3 (γ3 pThr172 AMPK signal) in transiently transfected HEK293 cells, 20 minutes compound incubation; for Emax: 20 min, read-out: Assay GMean Asy. Max (%); for EC50: geometric mean EC50, read-out: Assay GMean EC50
How it was run: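 Transiently co-transfected (α2/β2/γ3 plasmids, electroporation) HEK293AD cells, plated 2 days in low-glucose DMEM+10% FBS, treated 20 min with compounds (11-point half-log dilutions). Lysates read by modified AlphaLISA capturing γ3 with pThr172 antibody detection. % effect relative to 30 μM HPE and DMSO; EC50 and Emax from curve fit.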

[1] = geometric mean of the asymptotic max

T1 sequence (P54646 whole entry): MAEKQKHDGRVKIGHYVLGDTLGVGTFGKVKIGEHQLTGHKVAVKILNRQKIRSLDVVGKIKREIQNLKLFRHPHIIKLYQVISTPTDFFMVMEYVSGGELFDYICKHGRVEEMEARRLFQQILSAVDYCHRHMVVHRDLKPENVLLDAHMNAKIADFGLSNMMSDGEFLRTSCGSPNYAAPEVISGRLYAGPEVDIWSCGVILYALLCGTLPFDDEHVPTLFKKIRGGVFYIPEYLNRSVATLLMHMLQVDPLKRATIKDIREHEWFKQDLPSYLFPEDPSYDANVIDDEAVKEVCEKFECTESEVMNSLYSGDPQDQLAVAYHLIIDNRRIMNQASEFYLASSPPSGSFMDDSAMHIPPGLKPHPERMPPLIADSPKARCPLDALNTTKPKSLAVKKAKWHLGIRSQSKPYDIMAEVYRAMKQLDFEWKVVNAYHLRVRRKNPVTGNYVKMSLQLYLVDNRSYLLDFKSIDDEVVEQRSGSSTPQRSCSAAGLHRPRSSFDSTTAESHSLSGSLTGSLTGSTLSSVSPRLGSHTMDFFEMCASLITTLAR
T1 sequence (O43741 whole entry): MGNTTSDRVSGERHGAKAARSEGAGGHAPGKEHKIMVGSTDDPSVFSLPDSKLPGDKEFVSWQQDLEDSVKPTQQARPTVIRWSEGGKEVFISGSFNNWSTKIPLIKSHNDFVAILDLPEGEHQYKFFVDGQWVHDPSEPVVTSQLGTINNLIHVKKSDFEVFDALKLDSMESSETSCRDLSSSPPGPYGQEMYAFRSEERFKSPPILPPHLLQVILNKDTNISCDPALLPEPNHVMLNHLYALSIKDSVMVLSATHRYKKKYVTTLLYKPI
T1 sequence (Q9UGI9 whole entry): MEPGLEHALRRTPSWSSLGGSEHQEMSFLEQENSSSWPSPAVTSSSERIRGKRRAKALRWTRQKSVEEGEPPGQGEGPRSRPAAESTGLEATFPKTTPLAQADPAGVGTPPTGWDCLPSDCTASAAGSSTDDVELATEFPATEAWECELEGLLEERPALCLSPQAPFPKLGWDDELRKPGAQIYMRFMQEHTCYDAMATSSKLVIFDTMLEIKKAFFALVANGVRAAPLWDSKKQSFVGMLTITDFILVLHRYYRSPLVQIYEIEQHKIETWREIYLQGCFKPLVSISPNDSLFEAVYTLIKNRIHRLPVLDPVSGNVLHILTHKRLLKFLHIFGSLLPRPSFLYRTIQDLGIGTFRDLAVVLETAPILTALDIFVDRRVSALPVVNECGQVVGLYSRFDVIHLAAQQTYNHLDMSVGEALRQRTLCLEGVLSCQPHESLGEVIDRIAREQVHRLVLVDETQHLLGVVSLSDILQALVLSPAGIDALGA

Compound | Emax [1] [%] | EC50 [nM] | Assay GMean Asy. Max (%) [1] [%]
C[C@@H](O)c1ccc(N2C[C@](C)(c3cccc(Cl)c3F)c3c(cnc(NC4CN(C(=O)[C@@H]5C[C@@H]5F)C4)c3F)C2=O)nc1 [Example 18, (4R)-4-(3-Chloro-2-fluorophenyl)-5-fluoro-6-({1-[(1S,2S)-2-fluorocyclopropane-1-carbonyl]azetidin-3-yl}amino)-2-{5-[(1R)-1-hydroxyethyl]pyridin-2-yl}-4-methyl-3,4-dihydro-2,7-naphthyridin-1(2H)-one] | 79.2 | 165 | –
C[C@]1(c2cccc(Cl)c2F)CN(c2ncccc2F)C(=O)c2cnc(NC3CN(C(N)=O)C3)c(F)c21 [Example 19, 3-{[(5R)-5-(3-Chloro-2-fluorophenyl)-4-fluoro-7-(3-fluoropyridin-2-yl)-5-methyl-8-oxo-5,6,7,8-tetrahydro-2,7-naphthyridin-3-yl]amino}azetidine-1-carboxamide] | 31.3 | 87.2 | –
CNC(=O)N1CC(Nc2ncc3c(c2F)[C@@](C)(c2cccc(Cl)c2F)CN(c2ncccc2F)C3=O)C1 [Example 20, 3-{[(5R)-5-(3-Chloro-2-fluorophenyl)-4-fluoro-7-(3-fluoropyridin-2-yl)-5-methyl-8-oxo-5,6,7,8-tetrahydro-2,7-naphthyridin-3-yl]amino}-N-methylazetidine-1-carboxamide] | 43.1 | 23.9 | –
Cn1cc(F)c(N2C[C@](C)(c3cccc(Cl)c3F)c3c(cnc(NC4CN(C(=O)N5C[C@@H]6C[C@H]5CO6)C4)c3F)C2=O)n1 [Example 21, (4R)-4-(3-chloro-2-fluorophenyl)-5-fluoro-2-(4-fluoro-1-methyl-1H-pyrazol-3-yl)-4-methyl-6-({1-[(1S,4S)-2-oxa-5-azabicyclo[2.2.1]heptane-5-carbonyl]azetidin-3-yl}amino)-3,4-dihydro-2,7-naphthyridin-1(2H)-one] | 142 | 39.8 | –
C[C@]1(c2cccc(Cl)c2F)CN(c2ccc(CO)cn2)C(=O)c2cnc(NC3CN(C(=O)N4C[C@@H]5C[C@H]4CO5)C3)c(F)c21 [Example 22, (4R)-4-(3-Chloro-2-fluorophenyl)-5-fluoro-2-[5-(hydroxymethyl)pyridin-2-yl]-4-methyl-6-({1-[(1 S,4S)-2-oxa-5-azabicyclo[2.2.1]heptane-5-carbonyl]azetidin-3-yl}amino)-3,4-dihydro-2,7-naphthyridin-1(2H)-one] | 136 | 44.7 | –
CC1(c2cccc(F)c2F)CN(c2ccccc2)C(=O)c2cnc(NC3CN(C(=O)CN4CCCC4)C3)nc21 (stereo not shown) [Example 33, 8-(2,3-Difluorophenyl)-8-methyl-6-phenyl-2-({1-[(pyrrolidin-1-γ1)acetyl]azetidin-3-yl}amino)-7,8-dihydropyrido[4,3-d]pyrimidin-5(6H)-one] | 104 | 906 | –
Cn1cc(F)c(N2CC(C)(c3cccc(Cl)c3F)c3c(ccc(NC4CN(C5CCCNC5=O)C4)c3F)C2=O)n1 (stereo not shown) [Example 35, 4-(3-Chloro-2-fluorophenyl)-5-fluoro-2-(4-fluoro-1-methyl-1H-pyrazol-3-yl)-4-methyl-6-{[1-(2-oxopiperidin-3-γ1)azetidin-3-yl]amino}-3,4-dihydroisoquinolin-1(2H)-one] | – | 27.2 | 119
Cn1cc(F)c(N2CC(C)(c3cccc(Cl)c3F)c3c(ccc(NC4CN(C5CCCNC5=O)C4)c3F)C2=O)n1 (stereo not shown) [Example 36, 4-(3-Chloro-2-fluorophenyl)-5-fluoro-2-(4-fluoro-1-methyl-1H-pyrazol-3-yl)-4-methyl-6-{[1-(2-oxopiperidin-3-γ1)azetidin-3-yl]amino}-3,4-dihydroisoquinolin-1(2H)-one] | 96.5 | 149 | –
C[C@]1(c2cccc(Cl)c2F)CN(c2n[nH]cc2F)C(=O)c2cnc(NC3CN(C(=O)[C@@H]4C[C@@H]4F)C3)c(F)c21 [Example 112, (4R)-4-(3-chloro-2-fluorophenyl)-5-fluoro-6-({1-[(1S,2S)-2-fluorocyclopropane-1-carbonyl]azetidin-3-yl}amino)-2-(4-fluoro-1H-pyrazol-3-yl)-4-methyl-3,4-dihydro-2,7-naphthyridin-1(2H)-one] | 72.1 | 899 | –
Cn1cc(F)c(N2C[C@](C)(c3cccc(Cl)c3F)c3c(cnc(NC4CN(C(=O)[C@@H]5CC5(F)F)C4)c3F)C2=O)n1 [compound 39, (4R)-4-(3-chloro-2-fluorophenyl)-6-({1-[(1S)-2,2-difluorocyclopropane-1-carbonyl]azetidin-3-yl}amino)-5-fluoro-2-(4-fluoro-1-methyl-1H-pyrazol-3-yl)-4-methyl-3,4-dihydro-2,7-naphthyridin-1(2H)-one] | 91.2 | 68.7 | –
C[C@@H](O)C(=O)N1CC(Nc2ncc3c(c2F)[C@@](C)(c2cccc(Cl)c2F)CN(c2nn(C)cc2F)C3=O)C1 [compound 40, (4R)-4-(3-chloro-2-fluorophenyl)-5-fluoro-2-(4-fluoro-1-methyl-1H-pyrazol-3-yl)-6-({1-[(2R)-2-hydroxypropanoyl]azetidin-3-yl}amino)-4-methyl-3,4-dihydro-2,7-naphthyridin-1(2H)-one] | 58.8 | 113 | –
CN(C)CC(=O)N1CC(Nc2ncc3c(c2F)[C@@](C)(c2cccc(Cl)c2F)CN(c2nn(C)cc2F)C3=O)C1 [compound 41, (4R)-4-(3-chloro-2-fluorophenyl)-6-({1-[(dimethylamino)acetyl]azetidin-3-yl}amino)-5-fluoro-2-(4-fluoro-1-methyl-1H-pyrazol-3-yl)-4-methyl-3,4-dihydro-2,7-naphthyridin-1(2H)-one] | 80.2 | 120 | –
C[C@]1(c2cccc(Cl)c2F)CN(c2ccc(CCO)cn2)C(=O)c2cnc(NC3CN(C(=O)[C@@H]4C[C@@H]4F)C3)c(F)c21 [compound 48, (4R)-4-(3-chloro-2-fluorophenyl)-5-fluoro-6-({1-[(1S,2S)-2-fluorocyclopropane-1-carbonyl]azetidin-3-yl}amino)-2-[5-(2-hydroxyethyl)pyridin-2-yl]-4-methyl-3,4-dihydro-2,7-naphthyridin-1(2H)-one] | 71.4 | 110 | –
C[C@H](O)c1ccc(N2C[C@](C)(c3cccc(Cl)c3F)c3c(cnc(NC4CN(C(=O)[C@@H]5C[C@@H]5F)C4)c3F)C2=O)nc1 [compound 49, (4R)-4-(3-chloro-2-fluorophenyl)-5-fluoro-6-({1-[(1S,2S)-2-fluorocyclopropane-1-carbonyl]azetidin-3-yl}amino)-2-{5-[(1S)-1-hydroxyethyl]pyridin-2-yl}-4-methyl-3,4-dihydro-2,7-naphthyridin-1(2H)-one] | 77.3 | 63.9 | –
C[C@]1(c2cccc(Cl)c2F)CN(c2ccc(OC(F)F)cn2)C(=O)c2cnc(NC3CN(C(=O)[C@@H]4C[C@@H]4F)C3)c(F)c21 [compound 50, (4R)-4-(3-chloro-2-fluorophenyl)-2-[5-(difluoromethoxy)pyridin-2-yl]-5-fluoro-6-({1-[(1S,2S)-2-fluorocyclopropane-1-carbonyl]azetidin-3-yl}amino)-4-methyl-3,4-dihydro-2,7-naphthyridin-1(2H)-one] | 63.7 | 233 | –
CNc1ccc(N2C[C@](C)(c3cccc(Cl)c3F)c3c(cnc(NC4CN(C(=O)[C@@H]5C[C@@H]5F)C4)c3F)C2=O)nc1 [compound 51, (4R)-4-(3-chloro-2-fluorophenyl)-5-fluoro-6-({1-[(1S,2S)-2-fluorocyclopropane-1-carbonyl]azetidin-3-yl}amino)-4-methyl-2-[5-(methylamino)pyridin-2-yl]-3,4-dihydro-2,7-naphthyridin-1(2H)-one] | 63.2 | 49.1 | –
C[C@]1(c2cccc(Cl)c2F)CN(c2ccc(CO)cn2)C(=O)c2cnc(NC3CN(C(=O)[C@@H]4C[C@@H]4F)C3)c(F)c21 [compound 52, (4R)-4-(3-chloro-2-fluorophenyl)-5-fluoro-6-({1-[(1S,2S)-2-fluorocyclopropane-1-carbonyl]azetidin-3-yl}amino)-2-[5-(hydroxymethyl)pyridin-2-yl]-4-methyl-3,4-dihydro-2,7-naphthyridin-1(2H)-one] | 65.4 | 47.4 | –
C[C@]1(c2cccc(Cl)c2F)CN(c2ccc([C@@H]3COCCN3)cc2)C(=O)c2cnc(NC3CN(C(=O)[C@@H]4C[C@@H]4F)C3)c(F)c21 [compound 53, (4R)-4-(3-chloro-2-fluorophenyl)-5-fluoro-6-({1-[(1S,2S)-2-fluorocyclopropane-1-carbonyl]azetidin-3-yl}amino)-4-methyl-2-{4-[(3R)-morpholin-3-yl]phenyl}-3,4-dihydro-2,7-naphthyridin-1(2H)-one] | 91 | 131 | –
Cn1ccc(N2C[C@](C)(c3cccc(Cl)c3F)c3c(cnc(NC4CN(C(=O)[C@@H]5C[C@@H]5F)C4)c3F)C2=O)n1 [compound 54, (4R)-4-(3-chloro-2-fluorophenyl)-5-fluoro-6-({1-[(1S,2S)-2-fluorocyclopropane-1-carbonyl]azetidin-3-yl}amino)-4-methyl-2-(1-methyl-1H-pyrazol-3-yl)-3,4-dihydro-2,7-naphthyridin-1(2H)-one] | 79.5 | 58.1 | –
C[C@]1(c2cccc(Cl)c2F)CN(c2cc(OC(F)F)ccn2)C(=O)c2cnc(NC3CN(C(=O)[C@@H]4C[C@@H]4F)C3)c(F)c21 [compound 55, (4R)-4-(3-chloro-2-fluorophenyl)-2-[4-(difluoromethoxy)pyridin-2-yl]-5-fluoro-6-({1-[(1S,2S)-2-fluorocyclopropane-1-carbonyl]azetidin-3-yl}amino)-4-methyl-3,4-dihydro-2,7-naphthyridin-1(2H)-one] | 30.9 | 24 | –
